The NIST ThermoML archive (doi:10.1021/je049777o)

Assay: xn = mol fraction of the nth substance listed
Details: 101.3 kPa, Liquid

COC(=O)OC [dimethyl carbonate] + CCCCCCC
Details	mass density [kg/m3]	viscosity [mPa·s]
293.15 K, x1 = 0.1099	709.87	0.3932
293.15 K, x1 = 0.2176	735.33	0.3924
293.15 K, x1 = 0.3229	763.59	0.4001
293.15 K, x1 = 0.4259	794.8	0.4139
293.15 K, x1 = 0.5266	829.38	0.4321
293.15 K, x1 = 0.6252	867.51	0.4541
293.15 K, x1 = 0.7218	910.1	0.4774
293.15 K, x1 = 0.8165	957.71	0.5078
293.15 K, x1 = 0.9092	1011.41	0.5511
293.15 K, x1 = 1	1069.54	0.6173
298.15 K, x1 = 0.1099	705.39	0.3737
298.15 K, x1 = 0.2176	730.61	0.3723
298.15 K, x1 = 0.3229	758.68	0.3796
298.15 K, x1 = 0.4259	789.63	0.3911
298.15 K, x1 = 0.5266	823.98	0.4095
298.15 K, x1 = 0.6252	861.86	0.4261
298.15 K, x1 = 0.7218	904.23	0.45
298.15 K, x1 = 0.8165	951.63	0.4779
298.15 K, x1 = 0.9092	1005.04	0.5169
298.15 K, x1 = 1	1062.95	0.5734
303.15 K, x1 = 0.1099	700.93	0.3559
303.15 K, x1 = 0.2176	725.89	0.353
303.15 K, x1 = 0.3229	753.73	0.3585
303.15 K, x1 = 0.4259	784.46	0.3719
303.15 K, x1 = 0.5266	818.56	0.3855
303.15 K, x1 = 0.6252	856.24	0.4015
303.15 K, x1 = 0.7218	898.37	0.423
303.15 K, x1 = 0.8165	945.53	0.4491
303.15 K, x1 = 0.9092	998.7	0.4793
303.15 K, x1 = 1	1056.35	0.5403
313.15 K, x1 = 0.1099	691.78	0.32
313.15 K, x1 = 0.2176	716.32	0.3195
313.15 K, x1 = 0.3229	743.68	0.3248
313.15 K, x1 = 0.4259	773.95	0.3316
313.15 K, x1 = 0.5266	807.58	0.3435
313.15 K, x1 = 0.6252	844.82	0.3588
313.15 K, x1 = 0.7218	886.49	0.3777
313.15 K, x1 = 0.8165	933.18	0.402
313.15 K, x1 = 0.9092	985.81	0.4335
313.15 K, x1 = 1	1043.01	0.4807
323.15 K, x1 = 0.1099	682.57	0.2905
323.15 K, x1 = 0.2176	706.62	0.292
323.15 K, x1 = 0.3229	733.52	0.2932
323.15 K, x1 = 0.4259	763.34	0.2997
323.15 K, x1 = 0.5266	796.47	0.3118
323.15 K, x1 = 0.6252	833.28	0.3251
323.15 K, x1 = 0.7218	874.5	0.3403
323.15 K, x1 = 0.8165	920.24	0.3615
323.15 K, x1 = 0.9092	972.84	0.3906
323.15 K, x1 = 1	1029.59	0.427
333.15 K, x1 = 0.1099	673.2	0.2666
333.15 K, x1 = 0.2176	696.76	0.2648
333.15 K, x1 = 0.3229	723.19	0.267
333.15 K, x1 = 0.4259	752.53	0.273
333.15 K, x1 = 0.5266	785.19	0.2828
333.15 K, x1 = 0.6252	821.51	0.2946
333.15 K, x1 = 0.7218	862.31	0.3099
333.15 K, x1 = 0.8165	908.07	0.3291
333.15 K, x1 = 0.9092	959.74	0.3543
333.15 K, x1 = 1	1016	0.3893
343.15 K, x1 = 0.1099	663.69	0.2437
343.15 K, x1 = 0.2176	686.83	0.2429
343.15 K, x1 = 0.3229	712.79	0.2462
343.15 K, x1 = 0.4259	741.63	0.2512
343.15 K, x1 = 0.5266	773.79	0.2603
343.15 K, x1 = 0.6252	809.67	0.2725
343.15 K, x1 = 0.7218	850.05	0.2851
343.15 K, x1 = 0.8165	894.95	0.3015
343.15 K, x1 = 0.9092	946.54	0.3252
343.15 K, x1 = 1	1002.32	0.3527
